Holding throughout (type): functional, cell-based
The test system of one assay is DU-145. The experiment in a line: Antiproliferative activity against human DU145 cells assessed as reduction in cell viability incubated for 48 hr by MTT assay. The conditions noted are these: DU-145, 48 h.
For a further assay, the system named is HT-29. The experiment in a line: Antiproliferative activity against human HT29 cells assessed as reduction in cell viability incubated for 48 hr by MTT assay. As to conditions: HT-29, 48 h. On the technique in general: Tetrazolium dyes change colour on reduction, which living cells bring about.
A further assay relates to PC-3. The experiment in a line: Antiproliferative activity against human PC3 cells assessed as reduction in cell viability incubated for 48 hr by MTT assay. The conditions noted are these: PC-3, 48 h.
A further assay concerns HCT-116. The experiment in a line: Antiproliferative activity against human HCT116 cells assessed as reduction in cell viability incubated for 48 hr by MTT assay. As to conditions: HCT-116, 48 h.

As a reminder, the IC50 is the midpoint of a concentration-inhibition curve. On to `COc1cc(C(=O)/C=C/c2ccc(OCCCNCCCNCCCCNCCCN)cc2)cc(OC)c1OC`, for which the IC50 was 10.8 µM in the assay on DU-145, more than 40 µM with HT-29, 14 µM in the assay with PC-3 and 11.8 µM in the assay with HCT-116.

For the molecule `COc1cc(C(=O)/C=C/c2ccc(OCCCNCCCN)cc2)cc(OC)c1OC`, the IC50 amounted to 10.2 µM with DU-145, 13.7 µM in the assay on HT-29, 20.4 µM in the assay on PC-3 and 21.9 µM in the assay with HCT-116.

`COc1cc(C(=O)/C=C/c2ccc(OCCCNCCCCN)cc2)cc(OC)c1OC`: the IC50 in the assay with DU-145 worked out at 8.4 µM; in the assay with HT-29, 20.2 µM; in the assay on PC-3, 20.1 µM; in the assay on HCT-116, 12.4 µM.

For the molecule `COc1cc(C(=O)/C=C/c2ccc(OCCCNCCCCNCCCN)cc2)cc(OC)c1OC`, the IC50 was 20.6 µM with DU-145, 31.8 µM in the assay on HT-29, 32.6 µM in the assay on PC-3 and 20.3 µM in the assay with HCT-116.

The record behind these values is ChEMBL document CHEMBL4825690, “Synthesis and biological evaluation of chalcone-polyamine conjugates as novel vectorized agents in colorectal and prostate cancer chemotherapy” (Eur J Med Chem, 2021).
